Consider 26 compounds from patent US20250288584A1, “COMBINATIONS COMPRISING POSITIVE ALLOSTERIC MODULATORS OR ORTHOSTERIC AGONISTS OF METABOTROPIC GLUTAMATERGIC RECEPTOR SUBTYPE 2 AND THEIR USE” (JANSSEN PHARMACEUTICA NV, priority 2014, published 2025).

The Emax is the maximal effect, on the per cent scale that the assay sets.

For this assay, the target named is T1, human mGlu2 receptor (Homo sapiens, UniProt Q14416).
T1 construct: expressed in transfected cells; host or cells: CHO cells
Put plainly: [35S]GTPγS binding assay, mGluR2 PAM. The assay is classed as biochemical. Conditions: for Emax: EC20 glutamate; for GTPγS-hmGluR2 PAM pEC50 / EC50: in presence of EC20 glutamate; for EC50: read-out: GTPγS-hmGluR2 PAM pEC50 (converted). The protocol: The [^35S]GTPγS binding assay is a functional membrane-based assay used to study G-protein coupled receptor (GPCR) function whereby incorporation of a non-hydrolysable form of GTP, [^35S]GTPγS (guanosine 5′-triphosphate, labelled with […] ^35S), is measured.
Cells were then collected by scraping in PBS and cell suspension was centrifuged (10 min at 4000 RPM in benchtop centrifuge). Supernatant was discarded and pellet gently resuspended in 50 mM Tris-HCl, pH 7.4 by mixing with a vortex and pipetting up and down. The suspension was centrifuged at 16,000 RPM (Sorvall RC-5C plus rotor SS-34) for 10 minutes and the supernatant discarded. The pellet was homogenized in 5 mM Tris-HCl, pH 7.4 using an ultra-turrax homogenizer and centrifuged again (18,000 RPM, 20 min, 4° C.). The final pellet was resuspended in 50 mM Tris-HCl, pH 7.4 and stored at-80° C. in appropriate aliquots before use. Protein concentration was determined by the Bradford method (Bio-Rad, USA) with bovine serum albumin as standard.
Measurement of mGluR2 positive allosteric modulatory activity of test compounds was performed as follows. Test compounds and glutamate were diluted in assay buffer containing 10 mM HEPES acid, 10 mM HEPES salt, pH 7.4, 100 mM NaCl, 3 mM MgCl2 and 10 μM GDP. Human mGlu2 receptor-containing membranes were thawed on ice and diluted in assay buffer supplemented with 14 μg/ml saponin. Membranes were pre-incubated with compound alone or together with a predefined (˜EC20) concentration of glutamate (PAM assay) for 30 min at 30° C. After addition of [^35S] GTPγS (f.c. 0.1 nM), assay mixtures were shaken briefly and further incubated to allow [^35S] GTPγS incorporation on activation (30 minutes, 30° C.). Final assay mixtures contained 7 μg of membrane protein in 10 mM HEPES acid, 10 mM HEPES salt, pH 7.4, 100 mM NaCl, 3 mM MgCl2, 10 µM GDP and 2 μg/ml saponin. Total reaction volume was 200 μl. Reactions were terminated by rapid filtration through Unifilter-96 GF/B plates (Perkin Elmer, Massachusetts, USA) using a 96-well filtermate universal harvester. Filters were washed 6 times with ice-cold 10 mM NaH2PO4/10 mM Na2HPO4, pH 7.4. Filters were then air-dried, and 40 μl of liquid scintillation cocktail (Microscint-O) was added to each well. Membrane-bound radioactivity was counted in a Microplate Scintillation and Luminescence Counter from Perkin Elmer.
The concentration-response curves of representative compounds of the present invention-obtained in the presence of EC20 of mGluR2 agonist glutamate to determine positive allosteric modulation (PAM)—were generated using the Lexis software interface (developed at J&J). Data were calculated as % of the control glutamate response, defined as the maximal response that is generated upon addition of glutamate alone. Sigmoid concentration-response curves plotting these percentages versus the log concentration of the test compound were analyzed using non-linear regression analysis. The concentration producing half-maximal effect is then calculated as EC50. The pEC50 values below were calculated as the −log EC50, when the EC50 is expressed in M. Emax is defined as relative maximal effect (i.e. maximal % effect relative to the control glutamate response).

The mark [1] stands for this setting: maximal % effect relative to control glutamate response, read-out: GTPγS-hmGluR2 PAM Emax.

SMILES strings stand for the structures. Like-named read-outs stand apart in the source and are kept apart here.

T1 sequence (Q14416 19-872): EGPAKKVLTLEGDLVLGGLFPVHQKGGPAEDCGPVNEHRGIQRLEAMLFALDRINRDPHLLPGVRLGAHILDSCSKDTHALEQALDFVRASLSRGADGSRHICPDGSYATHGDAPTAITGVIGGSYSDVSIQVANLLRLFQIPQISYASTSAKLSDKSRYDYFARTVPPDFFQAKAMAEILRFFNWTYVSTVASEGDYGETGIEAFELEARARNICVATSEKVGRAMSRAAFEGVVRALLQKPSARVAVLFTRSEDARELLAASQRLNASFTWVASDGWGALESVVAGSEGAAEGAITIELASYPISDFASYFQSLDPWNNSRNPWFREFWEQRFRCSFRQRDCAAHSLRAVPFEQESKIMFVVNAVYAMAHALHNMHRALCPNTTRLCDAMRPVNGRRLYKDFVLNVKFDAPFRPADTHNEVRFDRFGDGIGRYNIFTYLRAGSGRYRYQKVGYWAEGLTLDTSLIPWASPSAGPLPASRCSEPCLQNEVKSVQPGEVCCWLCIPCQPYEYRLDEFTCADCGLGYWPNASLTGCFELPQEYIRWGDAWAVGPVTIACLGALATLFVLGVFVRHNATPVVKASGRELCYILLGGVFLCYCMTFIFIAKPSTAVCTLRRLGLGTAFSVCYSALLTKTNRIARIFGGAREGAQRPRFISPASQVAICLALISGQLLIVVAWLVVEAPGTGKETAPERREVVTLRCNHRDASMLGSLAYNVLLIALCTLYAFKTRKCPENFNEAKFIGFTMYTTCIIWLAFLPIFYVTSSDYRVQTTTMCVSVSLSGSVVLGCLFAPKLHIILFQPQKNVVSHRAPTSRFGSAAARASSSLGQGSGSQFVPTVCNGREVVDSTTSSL

For `C[C@H](Oc1c(F)cccc1F)c1ccn2c(CC3CC3)nnc2c1C(F)(F)F` [Co. No. 11-b, 3-(Cyclopropylmethyl)-7-[(1S)-1-(2,6-difluorophenoxy)ethyl]-8-(trifluoromethyl)[1,2,4]triazolo[4,3-a]pyridine], the Emax under setting [1] amounted to 239%.
Turning to `O=c1c(Cl)c(N2CCC(c3ccccc3F)CC2)ccn1CC1CC1` [Co. No. 12-a], the “GTPγS-hmGluR2 PAM pEC50” value came to 7.03. Besides, the Emax under setting [1] was found to be 242%.
For `COc1cc(F)ccc1O[C@@H](C)c1ccn2c(CC3CC3)nnc2c1C(F)(F)F` [Co. No. 12-b, 3-(Cyclopropylmethyl)-7-[(1S)-1-(4-fluoro-2-methoxyphenoxy)ethyl]-8-(trifluoromethyl)[1,2,4]triazolo[4,3-a]pyridine], the Emax under setting [1] was determined as 178%.
As to `CC1(C)OC2(CCN(c3ccn4c(CC(F)(F)F)nnc4c3Cl)CC2)c2ccccc21` [Co. No. 12], the Emax under setting [1] is 261%.
For `O=c1c(Cl)c(N2CCC(c3ccc(N4CCOCC4)cc3)CC2)ccn1CC1CC1` [Co. No. 13-a], the EC50 is 214 nM. Besides, under setting [1], the Emax is 212%.
Take `Cc1ccc(O[C@@H](C)c2ccn3c(CC4CC4)nnc3c2C(F)(F)F)c(Cl)c1` [Co. No. 13-b, 7-[(1S)-1-(2-Chloro-4-methylphenoxy)ethyl]-3-(cyclopropylmethyl)-8-(trifluoromethyl)[1,2,4]triazolo[4,3-a]pyridine]: the Emax under setting [1] is 280%.
Take `Fc1cnc(N2CCN(Cc3ccn4c(CC5CC5)nnc4c3C(F)(F)F)CC2)c(F)c1` [Co. No. 13]: the EC50 is 126 nM. For the same compound, the Emax under setting [1] is 278%.
As for `O=c1c(Cl)c(N2CCC(c3ccc(F)cc3F)CC2)ccn1CC1CC1` [Co. No. 14-a], the “GTPγS-hmGluR2 PAM pEC50” value was determined as 6.92. Besides, the Emax under setting [1] was 259%.
As for `Cc1cc(F)ccc1O[C@@H](C)c1ccn2c(CC3CC3)nnc2c1C(F)(F)F` [Co. No. 14-b, 3-(Cyclopropylmethyl)-7-[(1S)-1-(4-fluoro-2-methylphenoxy)ethyl]-8-(trifluoromethyl)[1,2,4]triazolo[4,3-a]pyridine], the Emax under setting [1] came to 281%.
For the compound `O=c1c(Cl)c(N2CCC(c3ccccc3Cl)CC2)ccn1CC1CC1` [Co. No. 15-a], the “GTPγS-hmGluR2 PAM pEC50” value turned out to be 7. For the same compound, the Emax under setting [1] came out at 253%.
As for `C[C@H](Oc1c(F)cc(F)cc1F)c1ccn2c(CC3CC3)nnc2c1C(F)(F)F` [Co. No. 15-b, 3-(Cyclopropylmethyl)-8-(trifluoromethyl)-7-[(1S)-1-(2,4,6-trifluorophenoxy)ethyl][1,2,4]triazolo[4,3-a]pyridine], the Emax (read-out: GTPγS-hmGluR2 PAM Emax, maximal % effect relative to control glutamate response) is 293%.
With `O=c1c(Cl)c(N2CCC(c3cccc(C(F)(F)F)c3)CC2)ccn1CC1CC1` [Co. No. 16-a], the “GTPγS-hmGluR2 PAM pEC50” value is 7.12. Moreover, under setting [1], the Emax was 223%.
In the case of `O=c1c(Cl)c(N2CCC(F)(c3ccccc3)CC2)ccn1CC1CC1` [Co. No. 17-a], the EC50 is 288 nM. For the same compound, under setting [1], the Emax was 261%.
Turning to `CC(C)Cn1ccc(N2CCC(c3ccccc3)CC2)c(Cl)c1=O` [Co. No. 19-a], the “GTPγS-hmGluR2 PAM pEC50” value was determined as 6.71. Further, the maximum response (Emax) under setting [1] was 240%.
`O=c1c(Cl)c(N2CCC(OCCF)(c3ccccc3)CC2)ccn1CC1CC1` [Co. No. 20-a]: under setting [1], the Emax was found to be 243%.
Still for that read-out and setting: the result for `O=c1c(Cl)c(N2CCC(CF)(c3ccccc3)CC2)ccn1CC1CC1` [Co. No. 21-a] reads 207%.
On the same count and under the same terms, the figure for `CCCCn1ccc(N2CCC(CO)(c3ccccc3)CC2)c(Cl)c1=O` [Co. No. 22-a] is 259%.
In the case of `CC(C)CCn1ccc(N2CCC(F)(c3ccccc3)CC2)c(Cl)c1=O` [Co. No. 23-a], the “GTPγS-hmGluR2 PAM pEC50” value was 6.58. In addition, the Emax under setting [1] is 203%.
The like results for `CC(C)CCn1ccc(N2CCC(c3ccc(F)cc3F)CC2)c(Cl)c1=O` [Co. No. 24-a] were, in that order, 6.91 and 258%.
In the case of `O=c1c(Cl)c(N2CCC(F)(c3ccccc3)CC2)ccn1CCC1CC1` [Co. No. 26-a], the EC50 is 316 nM. Also, the Emax under setting [1] is 248%.
Turning to `CCCCn1ccc(N2CCC(c3ccc(C(C)(C)O)cc3)CC2)c(Cl)c1=O` [Co. No. 27-a], the EC50 is 331 nM. In addition, under setting [1], the maximum response (Emax) stood at 284%.
For `CCCCn1ccc(N2CCC(c3ccccc3C(C)(C)O)CC2)c(Cl)c1=O` [Co. No. 28-a] the same measures were 110 nM and 297%.
Regarding `CCCCn1ccc(N2CCC(c3ccc(C(C)(C)O)cc3F)CC2)c(Cl)c1=O` [Co. No. 29-a], the EC50 was 107 nM. The Emax under setting [1] was 317%.
Consider `CCCc1nnc2c(C(F)(F)F)c(C(C)Oc3ccc(F)cc3F)ccn12` (stereo not drawn) [Co. No. 30-b, 7-[1-(2,4-Difluorophenoxy)ethyl]-3-propyl-8-(trifluoromethyl)[1,2,4]triazolo[4,3-a]pyridine], for which, under setting [1], the maximal effect (Emax) amounted to 227%.
On to `CCCCn1ccc(N2CCC3(CC2)OCc2ccccc23)c(Cl)c1=O` [Co. No. 32-a], for which the EC50 was 219 nM. Also, the Emax under setting [1] came to 347%.
For `CCCCn1ccc(N2CCC3(CC2)COc2ccccc23)c(Cl)c1=O` [Co. No. 33-a], the EC50 was 263 nM. Under setting [1], the Emax was determined as 362%.
